From US4504580A, “Antibiotics produced by fermentation of a novel strain of Streptomyces hygroscopicus” (Bristol-Myers Company, priority 1983, dated 1985) come the findings set out here.

In test [1] the test system is Staphylococcus aureus Smith. The test is described as follows: MIC by serial two-fold agar dilution, S. aureus Smith. The conditions noted are these: Staphylococcus aureus; Table 7; Mueller-Hinton agar; read-out: MIC. Type of test: cell-based. Put shortly:
(§1)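 MIC by serial two-fold agar dilution with a Steer's multi-inoculator. Inoculum was a 10^4 dilution of an overnight Heart Infusion Broth culture. Aminoglycoside-resistant panel comprised APH(3')- or AAC(3)-producing strains.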
On the technique in general: In agar dilution the substance is mixed into plates at graded concentrations.

Test [2] relates to Staphylococcus aureus D136. The experiment in a line: MIC by serial two-fold agar dilution, S. aureus D136. The settings on record: Staphylococcus aureus, D136; Table 7; Mueller-Hinton agar; read-out: MIC. Type of test: cell-based. An outline of the steps:
as §1

Test [3] concerns Bacillus subtilis PCI 219. The test is described as follows: MIC by serial two-fold agar dilution, B. subtilis PCI 219. Type of test: cell-based. The settings on record: Bacillus subtilis, PCI219; Table 7; Mueller-Hinton agar; read-out: MIC. An outline of the steps:
as §1

For another test, the system named is Escherichia coli NIHJ. The test is described as follows: MIC by serial two-fold agar dilution, E. coli NIHJ. It counts as cell-based. The settings on record: Escherichia coli; Table 7; Mueller-Hinton agar; read-out: MIC. Put shortly: as §1
The test system of the next test is Proteus vulgaris A9436. The experiment in a line: MIC by serial two-fold agar dilution, P. vulgaris A9436. Type of test: cell-based. The conditions noted are these: Proteus vulgaris, A9436; Table 7; Mueller-Hinton agar; read-out: MIC. An outline of the steps: as §1
The subject of the next test is Proteus mirabilis A9906. The test is described as follows: MIC by serial two-fold agar dilution, P. mirabilis A9906. Type of test: cell-based. The settings on record: Proteus mirabilis, A9906; Table 7; Mueller-Hinton agar; read-out: MIC. An outline of the steps:
as §1

A further test deals with Proteus morganii A9553. The experiment in a line: MIC by serial two-fold agar dilution, P. morganii A9553. It counts as cell-based. The conditions noted are these: Morganella morganii, A9553; Table 7; Mueller-Hinton agar; read-out: MIC. Put shortly: as §1
The test system of test [4] is Pseudomonas aeruginosa D15. The experiment in a line: MIC by serial two-fold agar dilution, P. aeruginosa D15. It counts as cell-based. The settings on record: Pseudomonas aeruginosa, D15; Table 7; Mueller-Hinton agar; read-out: MIC. An outline of the steps:
as §1

The subject of test [5] is Streptococcus pyogenes A20201. The experiment in a line: MIC by serial two-fold agar dilution, S. pyogenes A20201. It counts as cell-based. The conditions noted are these: Streptococcus pyogenes, A20201; Table 8; GC medium; read-out: MIC. As for the experimental part: (§2) The minimum inhibitory concentrations (MIC) of Bu-2659A, B, C, D and E were determined for a variety of gram-positive and gram-negative bacteria by the serial two-fold agar dilution method using the Steer's multi-inoculating apparatus. The inoculum was standardized as a 10^4 dilution of an overnight culture of the test organisms in Heart Infusion Broth (Difco). […] Reference antibiotics utilized in these tests included commercially available neomycin as well as its components, neomycins B and C [as used herein, the term "neomycin" means the commercial product containing neomycins B and C at an approximate ratio of 7:3], paromomycin [the commercial product containing >90% of paromomycin I and <10% of paromomycin II] and ribostamycin.

Test [6] relates to Streptococcus pneumoniae Type I. The experiment in a line: MIC by serial two-fold agar dilution, S. pneumoniae Type I. The conditions noted are these: Streptococcus pneumoniae; Table 8; GC medium; read-out: MIC. It counts as cell-based. As for the experimental part: as §2
The test system of test [7] is Neisseria gonorrhoeae A20143. The experiment in a line: MIC by serial two-fold agar dilution, N. gonorrhoeae A20143. Type of test: cell-based. The conditions noted are these: Neisseria gonorrhoeae, A20143; Table 8; GC medium; read-out: MIC. The protocol:
as §2

In test [8] the test system is Haemophilus influenzae A9729. The experiment in a line: MIC by serial two-fold agar dilution, H. influenzae A9729. Type of test: cell-based. The settings on record: Haemophilus influenzae, A9729; Table 8; GC medium; read-out: MIC. As for the experimental part: as §2
The next test deals with Mycobacterium phlei. The test is described as follows: MIC by serial two-fold agar dilution, M. phlei. It counts as cell-based. The settings on record: Mycolicibacterium phlei; Table 8; No. 1001 medium; read-out: MIC. As for the experimental part: as §2
The test system of a further test is Mycobacterium ranae. The experiment in a line: MIC by serial two-fold agar dilution, M. ranae. It counts as cell-based. The settings on record: Mycobacterium; Table 8; No. 1001 medium; read-out: MIC. The protocol:
as §2

Test [9] concerns Staphylococcus aureus A20239. The experiment in a line: MIC, aminoglycoside-resistant S. aureus A20239. Type of test: cell-based. The settings on record: Staphylococcus aureus, A20239; Table 9; inactivating enzyme APH(3')-I,II; Mueller-Hinton agar; read-out: MIC. As for the experimental part: as §2
Test [10] has as its system Pseudomonas aeruginosa A20601. The test is described as follows: MIC, aminoglycoside-resistant P. aeruginosa A20601. Type of test: cell-based. The conditions noted are these: Pseudomonas aeruginosa, A20601; Table 9; inactivating enzymes AAC(3)-I, APH(3')-II; Mueller-Hinton agar; read-out: MIC. As for the experimental part:
as §2

Test [11] concerns gram-positive and gram-negative bacteria. The test is described as follows: In vitro antibacterial spectra (MIC), overall comparison, Table 7. The settings on record: Table 7 organisms. Type of test: cell-based. The protocol:
as §2

The subject of test [12] is species of Streptococcus and Mycobacterium. The experiment in a line: Antibacterial activity (MIC), overall, Streptococcus and Mycobacterium, Table 8. It counts as cell-based. The protocol: as §2
In test [13] the test system is resistant strains which produce APH(3') or AAC(3). The experiment in a line: Susceptibility of aminoglycoside resistant organisms (MIC), overall, Table 9. It counts as cell-based. The settings on record: several resistant strains which produce APH(3') or AAC(3). The protocol:
as §2

The test system of test [14] is Klebsiella pneumoniae D-11. The experiment in a line: Experimental systemic infection in mice, K. pneumoniae D-11. Type of test: in vivo. The conditions noted are these: Klebsiella pneumoniae, D11, 96 h, im, single treatment, 4 days, read-out: PD50. The protocol:
(§3) The in vivo activity of Bu-2659A was assessed by experimental systemic infection in mice. The pathogenic bacteria used in the in vivo tests were E. coli Juhl, K. pneumoniae D-11, P. mirabilis A9906, S. aureus Smith and S. pyogenes A20201. Mice were challenged intraperitoneally with approximately 100×LD50 dose of the pathogens in a 5% suspension of hog gastric mucin (American Laboratories, Omaha, Neb.). A single intramuscular treatment with the antibiotic was given immediately after the bacterial challenge. […] Neomycin was comparatively tested as a reference compound. […] In terms of PD50 value Bu-2659A was about one-half as active as neomycin against infections with S. aureus and S. pyogenes.

Test [15] deals with Staphylococcus aureus Smith. The test is described as follows: Experimental systemic infection in mice, S. aureus Smith. It counts as in vivo. The settings on record: Staphylococcus aureus, 96 h, im, single treatment, 4 days, read-out: PD50. The protocol: as §3
For test [16], the system named is Streptococcus pyogenes A20201. The experiment in a line: Experimental systemic infection in mice, S. pyogenes A20201. Type of test: in vivo. The settings on record: Streptococcus pyogenes, A20201, 96 h, im, single treatment, 4 days, read-out: PD50. As for the experimental part: as §3

SMILES strings stand for the structures. Converted amounts (≈) assume the structure as drawn. “Also recorded” adds a separate entry of the source.

For the molecule `NC[C@@H]1O[C@H](O[C@H]2[C@@H](O)[C@H](O[C@@H]3[C@@H](O)[C@H](O)C[C@H](N)[C@H]3O[C@H]3O[C@H](CN)[C@@H](O)[C@H](O)[C@H]3N)O[C@@H]2CO)[C@H](N)[C@@H](O)[C@@H]1O` [Bu-2659A, 1-deamino-1-hydroxyneomycin B], the MIC in test [1] amounted to 1.6 µg/mL (≈ 2.6 µM); in test [2], 0.8 µg/mL (≈ 1.3 µM); in test [3], 0.1 µg/mL (≈ 0.162 µM); in the test with Escherichia coli NIHJ, 1.6 µg/mL (≈ 2.6 µM); with Proteus vulgaris A9436 it was 0.4 µg/mL (≈ 0.65 µM); in the test on Proteus mirabilis A9906, 0.8 µg/mL (≈ 1.3 µM). The MIC came to 1.6 µg/mL (≈ 2.6 µM) in the test on Proteus morganii A9553; 3.1 µg/mL (≈ 5.04 µM) in test [4]; 25 µg/mL (≈ 40.6 µM) in [5]; 25 µg/mL (≈ 40.6 µM) in [6]; 50 µg/mL (≈ 81.2 µM) in test [7]; 50 µg/mL (≈ 81.2 µM) in test [8]. In addition, the MIC is 0.1 µg/mL (≈ 0.162 µM) in the test with Mycobacterium phlei, 0.4 µg/mL (≈ 0.65 µM) in the test with Mycobacterium ranae, 12.5 µg/mL (≈ 20.3 µM) in test [9] and 6.3 µg/mL (≈ 10.2 µM) in test [10]. Besides, the “in vitro antibacterial activity, in words” value in [11] is given as “highest activity among the five Bu-2659 components; also recorded: comparable to that of neomycin; also recorded: substantially the same level of antibacterial activity as neomycin B”. The “activity against Streptococcus and Mycobacterium, in words” value in test [12] is reported as “equivalent activity”. Moreover, the “activity against aminoglycoside-resistant strains, in words” value in test [13] was “more active than neomycin, paromomycin and ribostamycin”. Besides, the figures for the ED50 in test [14], in [15] and in test [16] were 1.1 mg/kg, 0.63 mg/kg and 50 mg/kg, respectively.
